According to US20230243002A1, “ASSAY OT DETECT VIRUS” (priority 2020, published 2023):

Assays:
[1] = tested on: luminescence output of luciferase; test: Compounds and reagents that inhibit or interfere with the ID-Oligo luminescence methods; format: biochemical
Source text: Various compounds and components may interfere with the methods described herein. […] Thus, in some embodiments, the sample is free of compounds and components that inhibit the luminescence output of luciferase. Accordingly, the sample may be free of sodium-azide, sodium-citrate, heparin, EDTA, EGTA, proteases, phosphates, 2,2′-azino-di-(3-ethylbenzothiazoline)-6-sulfonic acid (ABTS), and/or butylated hydroxytoluene (BHT). In various related aspects, the present application also relates to devices and kits for performing the methods described herein. Such kits contain monitors, reagents and procedures that can be utilized in a clinical or research setting or adapted for either the field laboratory or on-site use. In particular, kits comprising the disclosed reagents used in practicing the methods described herein include any of a number of means for detecting the captured target nucleic acid molecule and measuring the bioluminescent signal produced subsequent to target capture, along with appropriate instructions, are contemplated. Suitable kits comprise reagents sufficient for performing an assay, or one or more independent steps of an assay, to detect a target nucleic acid molecule, as described herein above.

[2] = tested on: coupled ATPS-luciferase reaction; settings: 0.04% Na-Azide, LU measured for 200 seconds
luciferase = luciferase (Photinus pyralis, UniProt P08659); test: Background LU of reaction with only luciferase and no viral RNA, dATP versus dATPαS; format: biochemical
luciferase, sequence (P08659 whole entry): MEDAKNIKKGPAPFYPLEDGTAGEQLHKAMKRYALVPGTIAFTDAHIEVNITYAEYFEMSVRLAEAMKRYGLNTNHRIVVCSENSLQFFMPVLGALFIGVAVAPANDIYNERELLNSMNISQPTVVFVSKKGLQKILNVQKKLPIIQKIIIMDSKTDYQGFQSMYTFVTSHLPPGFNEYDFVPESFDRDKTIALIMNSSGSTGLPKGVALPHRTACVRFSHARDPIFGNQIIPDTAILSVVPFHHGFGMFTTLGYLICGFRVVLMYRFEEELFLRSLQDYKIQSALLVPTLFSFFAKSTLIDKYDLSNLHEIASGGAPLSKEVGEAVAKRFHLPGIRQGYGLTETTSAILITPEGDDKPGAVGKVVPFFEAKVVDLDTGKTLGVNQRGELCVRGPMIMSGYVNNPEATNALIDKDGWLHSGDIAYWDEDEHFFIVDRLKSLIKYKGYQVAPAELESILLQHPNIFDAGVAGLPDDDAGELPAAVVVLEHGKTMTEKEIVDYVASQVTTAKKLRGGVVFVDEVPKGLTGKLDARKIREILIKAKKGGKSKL

[3] = tested on: SARS-CoV-2, USA-WA1/2020 RNA; test: ID-Oligos assay signal output with dC/T/G only or supplemented with dATPαS; format: biochemical; settings: supplemented with 0.1 mM dATPαS versus only dT/G/C

CCn1c(=NN=c2sc3cc(S(=O)(=O)O)ccc3n2CC)sc2cc(S(=O)(=O)O)ccc21 [ABTS, 2,2′-azino-di-(3-ethylbenzothiazoline)-6-sulfonic acid]
inhibit or interfere with the methods described herein [1]: inhibit or interfere

Cc1cc(C(C)(C)C)c(O)c(C(C)(C)C)c1 [BHT, butylated hydroxytoluene]
inhibit or interfere with the methods described herein [1]: inhibit or interfere

O=C(O)CN(CCN(CC(=O)O)CC(=O)O)CC(=O)O [EDTA]
inhibit or interfere with the methods described herein [1]: inhibit or interfere

O=C(O)CN(CCOCCOCCN(CC(=O)O)CC(=O)O)CC(=O)O [EGTA]
inhibit or interfere with the methods described herein [1]: inhibit or interfere

[N-]=[N+]=[N-].[Na+] [Na-azide]
effect on the luminescence output of the coupled ATPS-luciferase reaction [2]: inhibitory effect
inhibit or interfere with the methods described herein [1]: inhibit or interfere

O=C([O-])CC(O)(CC(=O)[O-])C(=O)[O-].[Na+].[Na+].[Na+] [Na-citrate]
inhibit or interfere with the methods described herein [1]: inhibit or interfere

Nc1ncnc2c1ncn2[C@H]1C[C@H](O)[C@@H](COP(O)(=S)OP(=O)(O)OP(=O)(O)O)O1 (some centres unmarked) [dATPαS]
improved signal-to-noise ratio (luciferase): ~2 orders of magnitude
LU background (luciferase; 0.1 mM/1 mM, luciferase only, no viral RNA): reduction
reaction slope [3]: Higher slope values

heparin
inhibit or interfere with the methods described herein [1]: inhibit or interfere
